Laboratory results as given in US10441663B2, “Methods for treating cancer” (Bicycle Therapeutics Limited, priority 2016, dated 2019).
*1 amine or outer side, *2 acyl side, *3 side chain or, on linkers, in order; H or OH if unused. Where a SMILES comes first, the peptide text is derived from it. Bridges are numbered along the chain shown (N, C = ends). [ ]: non-standard residue; d: D form. The star is where a group is joined. X1 = COc1cc2cc(c1Cl)N(C)C(=O)C[C@H](OC(=O)[C@H](C)N(C)C(=O)CCSSC(C)CCC(=O)*)[C@]1(C)O[C@H]1[C@H](C)[C@@H]1C[C@@](O)(NC(=O)O1)[C@H](OC)/C=C/C=C(\C)C2; 1Nal = N[C@@H](Cc1cccc2ccccc12)C(=O)O; TBMB = c1c(C[*:1])cc(C[*:3])cc1C[*:2]; Tle = CC(C)(C)[C@H](N)C(=O)O; βAla = NCCC(=O)O; Sar = CNCC(=O)O

Legend:
3LL syngeneic model = assay: In vivo efficacy of BT1718 in 3LL syngeneic model (Example 9); parameters: species or system Mus Musculus
Procedure: The objective of this study was to evaluate the in vivo anti-tumor efficacy of BT1718 in the treatment of the subcutaneous 3LL syngeneic model in C57BL/6 mice.
The 3LL tumor cells were maintained in vitro as a monolayer culture in medium supplemented with 10% heat inactivated fetal bovine serum at 37° C. in an atmosphere of 5% CO2 in air. The tumor cells were routinely subcultured twice weekly by trypsin-EDTA treatment. The cells growing in an exponential growth phase were harvested and counted for tumor inoculation.
Each mouse was inoculated subcutaneously at the right flank with 3LL tumor cells (1×106) in 0.1 ml of PBS for tumor development. The animals were randomized and treatment was started when the average tumor volume reaches approximately 105 mm^3 for the efficacy study. The test article administration and the animal numbers in each group were shown in the experimental design table (Table 48).
All the procedures related to animal handling, care and the treatment in the study were performed according to the guidelines of the Association for Assessment and Accreditation of Laboratory Animal Care (AAALAC). At the time of routine monitoring, the animals were daily checked for any effects of tumor growth and treatments on normal behavior such as mobility, food and water consumption (by looking only), body weight gain/loss (body weights were measured every day), eye/hair matting and any other abnormal effect as stated in the protocol. Death and observed clinical signs were recorded on the basis of the numbers of animals within each subset.
The major endpoint was to see if the tumor growth could be delayed or mice could be cured. Tumor size was measured three times weekly in two dimensions using a caliper, and the volume was expressed in mm^3 using the formula: V=0.5 a×b2 where a and b are the long and short diameters of the tumor, respectively. The tumor size was then used for calculations of T/C value. The T/C value (in percent) is an indication of antitumor effectiveness; T and C are the mean volumes of the treated and control groups, respectively, on a given day.
TGI was calculated for each group using the formula: TGI (%)=[1−(Ti−T0)/(Vi−V0)]×100; Ti is the average tumor volume of a treatment group on a given day, T0 is the average tumor volume of the treatment group on the day of treatment start, Vi is the average tumor volume of the vehicle control group on the same day with Ti, and V0 is the average tumor volume of the vehicle group on the day of treatment start.
Summary statistics, including mean and the standard error of the mean (SEM), are provided for the tumor volume of each group at each time point.
Statistical analysis of difference in tumor volume among the groups was conducted on the data obtained at the best therapeutic time point after the final dose.
A one-way ANOVA was performed to compare tumor volume among groups, and when a significant F-statistics (a ratio of treatment variance to the error variance) was obtained, comparisons between groups were carried out with Games-Howell test. All data were analyzed using Prism. P<0.05 was considered to be statistically significant.

[1] = Preliminary metabolism studies; type: in vivo
Description: Efficacy in this model was reduced in the conjugates containing the least cleavable linkers.

Question: What does the source list for `COc1cc2cc(c1Cl)N(C)C(=O)C[C@H](OC(=O)[C@H](C)N(C)C(=O)CCSSC(C)CCC(=O)NCCC(=O)N(C)CC(=O)N(C)CC(=O)N(C)CC(=O)N(C)CC(=O)N(C)CC(=O)N(C)CC(=O)N(C)CC(=O)N(C)CC(=O)N(C)CC(=O)N(C)CC(=O)N[C@@H](C)C(=O)N[C@H]1CSCc3cc4cc(c3)CSC[C@H](NC(=O)[C@@H](C)NC(=O)[C@H](Cc3cccc5ccccc35)NC(=O)[C@H](CCC(=O)O)NC(=O)[C@H](CC(N)=O)NC(=O)[C@@H](C)NC1=O)C(=O)N[C@@H](CCC(=O)O)C(=O)N[C@@H](CC(=O)O)C(=O)N[C@@H](Cc1ccccc1)C(=O)N[C@@H](Cc1ccc(O)cc1)C(=O)N[C@@H](CC(=O)O)C(=O)N[C@@H](C(C)(C)C)C(=O)N[C@H](C(N)=O)CSC4)[C@]1(C)O[C@H]1[C@H](C)[C@@H]1C[C@@](O)(NC(=O)O1)[C@H](OC)/C=C/C=C(\C)C2` (some centres unmarked) [BT1718] ({X1-βAla}-[Sar][Sar][Sar][Sar][Sar][Sar][Sar][Sar][Sar][Sar]AC[dA]NE[1Nal][dA]CEDFYD[Tle]C-NH2; linker 12-18-25 via TBMB (inferred))?
Answer: TGI (3LL syngeneic model; 1 mg/kg, day 14): 104.9%; Tumor Volume (3LL syngeneic model; 1 mg/kg, day 14): 2649 mm^3; TGI (3LL syngeneic model; 3 mg/kg, day 14): 69.9%; Tumor Volume (3LL syngeneic model; 3 mg/kg, day 14): 1764 mm^3; TGI (3LL syngeneic model; 10 mg/kg, day 14): 89.9; Tumor Volume (3LL syngeneic model; 10 mg/kg, day 14): 350 mm^3; tumor volume trace over time (3LL syngeneic model; 1 mpk biw, day 0): 106 ± 10 mm^3; tumor volume trace over time (3LL syngeneic model; 1 mpk biw, day 2): 239 ± 47 mm^3; tumor volume trace over time (3LL syngeneic model; 1 mpk biw, day 4): 405 ± 98 mm^3; tumor volume trace over time (3LL syngeneic model; 1 mpk biw, day 7): 765 ± 190 mm^3; tumor volume trace over time (3LL syngeneic model; 1 mpk biw, day 9): 1120 ± 267 mm^3; tumor volume trace over time (3LL syngeneic model; 1 mpk biw, day 11): 1568 ± 392 mm^3; T/C (3LL syngeneic model; 1 mpk biw, day 14): 104.9%; TGI (3LL syngeneic model; 1 mpk biw, day 14): −5.1%; tumor volume trace over time (3LL syngeneic model; 1 mpk biw, day 14): 2649 ± 553 mm^3; Tumor Volume (3LL syngeneic model; 1 mpk, biw, day 14, Mean ± SEM): 2649 ± 553 mm^3; tumor volume trace over time (3LL syngeneic model; 3 mpk biw, day 0): 105 ± 9 mm^3; tumor volume trace over time (3LL syngeneic model; 3 mpk biw, day 2): 234 ± 48 mm^3; tumor volume trace over time (3LL syngeneic model; 3 mpk biw, day 4): 423 ± 86 mm^3; tumor volume trace over time (3LL syngeneic model; 3 mpk biw, day 7): 706 ± 152 mm^3; tumor volume trace over time (3LL syngeneic model; 3 mpk biw, day 9): 991 ± 245 mm^3; tumor volume trace over time (3LL syngeneic model; 3 mpk biw, day 11): 1149 ± 313 mm^3; T/C (3LL syngeneic model; 3 mpk biw, day 14): 69.9%; TGI (3LL syngeneic model; 3 mpk biw, day 14): 31.4%; tumor volume trace over time (3LL syngeneic model; 3 mpk biw, day 14): 1764 ± 471 mm^3; Tumor Volume (3LL syngeneic model; 3 mpk, biw, day 14, Mean ± SEM): 1764 ± 471 mm^3; tumor volume trace over time (3LL syngeneic model; 10 mpk biw, day 0): 106 ± 8 mm^3; tumor volume trace over time (3LL syngeneic model; 10 mpk biw, day 2): 181 ± 21 mm^3; tumor volume trace over time (3LL syngeneic model; 10 mpk biw, day 4): 272 ± 38 mm^3; tumor volume trace over time (3LL syngeneic model; 10 mpk biw, day 7): 339 ± 86 mm^3; tumor volume trace over time (3LL syngeneic model; 10 mpk biw, day 9): 321 ± 85 mm^3; tumor volume trace over time (3LL syngeneic model; 10 mpk biw, day 11): 343 ± 92 mm^3; T/C (3LL syngeneic model; 10 mpk biw, day 14): 13.8%; TGI (3LL syngeneic model; 10 mpk biw, day 14): 89.9%; tumor volume trace over time (3LL syngeneic model; 10 mpk biw, day 14): 350 ± 105 mm^3; Tumor Volume (3LL syngeneic model; 10 mpk, biw, day 14, Mean ± SEM): 350 ± 105 mm^3; body weight effect (3LL syngeneic model; all mice): maintained their bodyweight well; route of excretion [1]: excreted mainly through the kidney in urine
